As usually defined, the IC50 is the concentration at which inhibition is half-maximal. As a reminder, the GI50 is the concentration giving 50% growth inhibition. Lower therefore signals more potent growth inhibition. In general, T/C refers to the result in the treated group divided by that in the control group, in per cent.

Converted amounts (≈) assume the structure as drawn. The source made the active and inactive calls. The calls are words filed in the database; no cut-off is given here.

The test system of assay [1] is A549. Description: Cytotoxicity against human A549 cells. Type of assay: functional, cell-based.
A short description of assay [2]: Growth inhibition of human lung cancer cells. Conditions: Cancer cell lines. Type of assay: functional.
The nature of assay [3]: Growth inhibition of human colon cancer cells. It is filed as functional. The following applies: Cancer cell lines.
Assay [4] can be described thus: Growth inhibition of human CNS cancer cells. It is filed as functional. The following applies: Cancer cell lines.
The nature of assay [5]: Growth inhibition of human ovarian cancer cells. Conditions: Cancer cell lines. It is filed as functional.
Assay [6] is described as follows: Growth inhibition of human renal cancer cells. It is filed as functional. Conditions: Cancer cell lines.
The nature of assay [7]: Growth inhibition of human leukemia cells. Type of assay: functional. The following applies: Leukemia cell.
The nature of assay [8]: Growth inhibition of human melanoma cells. Type of assay: functional. The following applies: Melanoma cell.
The next assay has as its system melanoma (human). Description: Growth inhibition of human melanoma cells. The following applies: Melanoma tumor cell line.
Assay [9] deals with Human immunodeficiency virus 1. In words: Antiviral activity against HIV1 infected in human CEM-SS cells assessed as inhibition of viral replication. It is filed as functional, organism-based. Conditions: Human immunodeficiency virus 1, CEM-SS.
Assay [10] can be described thus: Inhibition of tubulin polymerization.
For a further assay, the system named is OVCAR-3. Description: Antitumor activity against human OVCAR-3 cells xenografted in mouse assessed as increase in mouse life span. Type of assay: functional, cell-based. On the technique in general: Xenograft models place foreign cells or tissue in a host animal.
The next assay relates to P388. In words: Antitumor activity against mouse P388 cells allografted in mouse at 8 mg/kg relative to control. Type of assay: functional.
The subject of assay [11] is A549. In words: Cytotoxicity against human A549 cells after 3 days by sulforhodamine B assay. Type of assay: functional, cell-based. The following applies: A549, 72 h. (In SRB staining, fixed cells bind dye roughly in proportion to their protein.)
Another assay relates to 1A9. In words: Cytotoxicity against human 1A9 cells after 3 days by sulforhodamine B assay. Type of assay: functional, cell-based. The following applies: 1A9, 72 h.
The subject of a further assay is A-431. In words: Cytotoxicity against human A431 cells after 3 days by sulforhodamine B assay. It is filed as functional, cell-based. The following applies: A-431, 72 h.
The next assay has as its system HCT-8. Description: Cytotoxicity against human HCT8 cells after 3 days by sulforhodamine B assay. It is filed as functional, cell-based. The following applies: HCT-8, 72 h.
A further assay deals with PC-3. Description: Cytotoxicity against human PC3 cells after 3 days by sulforhodamine B assay. Type of assay: functional, cell-based. The following applies: PC-3, 72 h.
In assay [12] the test system is KB. Description: Cytotoxicity against human KB cells after 3 days by sulforhodamine B assay. Type of assay: functional, cell-based. The following applies: 72 h.
A short description of assay [13]: Cytotoxicity against human KBVIN cells after 3 days by sulforhodamine B assay. It is filed as functional, cell-based. Conditions: 72 h.
In a further assay the test system is HUVEC. Description: Cytotoxicity against HUVEC after 3 days by sulforhodamine B assay. Type of assay: cell-based. The following applies: Homo sapiens, 72 h.
The subject of another assay is MCF7. In words: Cytotoxicity against human MCF7 cells after 72 hrs by sulforhodamine B assay. Type of assay: functional. The following applies: MCF7, 72 h, read-out: ED50 (the source's name).
The subject of the next assay is SK-BR-3. Description: Cytotoxicity against human SK-BR-3 cells after 72 hrs by sulforhodamine B assay. Type of assay: functional. Conditions: SK-BR-3, 72 h, read-out: ED50 (the source's name).
A further assay has as its system ZR-75-1. Description: Cytotoxicity against human ZR-75-1 cells after 72 hrs by sulforhodamine B assay. The following applies: ZR-75-1, 72 h, read-out: ED50 (the source's name). Type of assay: functional.
A further assay concerns MDA-MB-231. In words: Cytotoxicity against human MDA-MB-231 cells after 72 hrs by sulforhodamine B assay. It is filed as functional. The following applies: MDA-MB-231, 72 h, read-out: ED50 (the source's name).
The nature of assay [14]: Antitumor activity against rat Walker 256 cells allografted in rat at 2.5 mg/kg relative to control. Type of assay: functional.
For a further assay, the system named is Hep-2 (human). In words: Cytotoxicity against human Hep-2 cells.
For assay [15], the system named is KB. Description: Selectivity ratio of EC50 for human KB cells to EC50 for vincristine-resistant human KB cells. It is filed as functional.

Take `COc1ccc2c(CNCCCCCCO)cc3cc4c(cc3c2c1)OCO4` [listing 1 of 2 here]: the IC50 in the assay with A549 [1] (Homo sapiens, A549) was 130 nM.
On to `COC(=O)[C@]12OC[C@]34[C@H]([C@@H](O)[C@@H]1O)[C@@]1(C)CC(=O)C(O)=C(C)[C@@H]1C[C@H]3OC(=O)[C@H](OC(=O)/C=C(/C)C(F)(F)F)[C@@H]24`, for which the GI50 in assay [2], in [3], in assay [4], in assay [5], in [6] and in assay [7] was 100 nM in each case. This compound also had a GI50 in assay [8] of 100 nM.
Compound `O=C1c2ccsc2C(=O)c2sc(CO)cc21` showed a 50% growth inhibitory concentration (GI50) in the assay with melanoma (human) of 18.2 nM.
As for `Cc1cc(=S)oc2c3c(ccc12)OC(C)(C)[C@H](OC(=O)C12CCC(C)(C(=O)O1)C2(C)C)[C@@H]3OC(=O)C12CCC(C)(C(=O)O1)C2(C)C` (some centres undefined), in assay [9], the EC50 was 64 nM.
With `O=c1cc(-c2ccccc2F)[nH]c2cc3c(cc12)OCO3`, the IC50 in assay [10] was found to be 850 nM. For the same compound, the Activity with OVCAR-3 came out at 130%.
Compound `C=C1C(=O)O[C@@H]2C[C@@H](C)[C@H]3C=CC(=O)[C@@]3(C)[C@@H](OC(=O)CCCC(=O)O[C@H]3[C@H]4C(=C)C(=O)O[C@@H]4C[C@H](C)[C@H]4C=CC(=O)[C@]43C)[C@@H]12` had a T/C in the assay on P388 of 195%.
On to `CCCC1=C(OC)C(CCC)(CCC)C(=O)/C(=C(O)\C=C\c2ccc(Br)cc2)C1=O`, for which the EC50 in the assay on A549 [11], in the assay on 1A9, with A-431, with HCT-8, in the assay with PC-3 and in the assay on KB [12] was 0.9 µg/mL (≈ 1.89 µM) throughout. Also, the EC50 (in assay [13]; in the assay with HUVEC) was 0.9 µg/mL (≈ 1.89 µM) in each case.
Regarding `COc1cccc2c1ccc1c3occ(C)c3c(=O)oc21`, the EC50 in the assay on MCF7 was 2.3 µg/mL (≈ 8.21 µM); in the assay on SK-BR-3, 0.2 µg/mL (≈ 0.714 µM); with ZR-75-1 it was 0.1 µg/mL (≈ 0.357 µM); in the assay on MDA-MB-231 it was 6.4 µg/mL (≈ 22.8 µM).
Take `C=C1C(=O)O[C@@H]2C[C@@H](C)[C@@H]3[C@@H]4CC(=O)[C@@]3(C[C@H]12)[C@@]1(C4)C(=O)O[C@@H]2C[C@@H](C)[C@@H]3C=CC(=O)[C@@]3(C)[C@@H](O)[C@@H]21` [MICROLENIN]: the T/C in [14] came to 173%.
In the case of `C[C@@H]1C[C@H]2OC(=O)[C@@H](C)[C@H]2[C@H](O)[C@]2(C)C(=O)C=C[C@@H]12`, in the assay with Hep-2 (human) (read-out: ED50 (the source's name)), the EC50 came to 0.8 µg/mL (≈ 3.03 µM).
With `COc1ccc2c(CNCCCCCCO)cc3cc4c(cc3c2c1)OCO4` [listing 2 of 2 here], in the assay on A549 [1] (a549), the IC50 turned out to be 160 nM.
For `C[C@@H]1C[C@H]2OC(=O)[C@@H](C)[C@H]2[C@H](O)[C@]2(C)C(=O)CC[C@@H]12`, the ED50 result with Hep-2 (human) is “inactive”.
For `COC1=C(C)C(O)=C(C(=O)/C=C/c2ccccc2)C(=O)C1(C)C` [DESMOSDUMOTIN C], the EC50 in the assay on A549 [11], in the assay on 1A9, with A-431, in the assay on HCT-8, with PC-3 and in the assay on KB [12] was 3 µg/mL (≈ 9.6 µM) in each case. Further, the EC50 (in assay [13]; in the assay on HUVEC) was 3 µg/mL (≈ 9.6 µM) throughout.
The compound `CCC1=C(O)c2c(oc(-c3ccc(CC)cc3)cc2=O)C(CC)(CC)C1=O` [6,8,8-TRIETHYL-4-ETHYL DESMOSDUMOTIN B] had an EC50 in assay [13] of 0.025 µg/mL (≈ 0.0682 µM). Also, the “Ratio EC50” value in the assay on KB [15] amounted to 320.
